Assay results reported in patent US20010049374A1 (priority 1997, published 2001).

tested on: angiogenesis/capillary network formation; test: not given; settings: in vitro; Alliegro and Glaser 1991; cited from earlier work

For `N=C(N)NC(=O)c1nc(Cl)c(N)nc1N` [Amiloride], the “inhibition of angiogenesis/capillary network formation” value is given as “angiogenesis/capillary network formation in vitro”.

tested on: tumor metastasis; test: not given; settings: in vivo; Kellen et al. 1988; cited from earlier work

For `N=C(N)NC(=O)c1nc(Cl)c(N)nc1N` [Amiloride], the “inhibition of tumor metastasis” value is given as “inhibit tumor metastasis in vivo”.

target: T1, urokinase enzyme Abbokinase (Homo sapiens, UniProt P00749); test: Determination of urokinase inhibition (Abbokinase, chromogenic substrate S-2444); format: biochemical; settings: Inhibitory potency against urokinase; substrate S-2444 at 200 μM, enzyme 2-3 nM, pH 7.4, 405 nm; read-out: IC50
T1 construct: purchased Abbott Laboratories, Abbott Park, Ill
Experimental: Several vials were reconstituted as directed on the vial, aliquoted and stored frozen. The enzyme was further diluted in assay buffer and 10 μl was used in the assay. Enzyme concentration in the assay was 2-3 nM. […] The Spectromax® calculated the reaction rates which were used to calculate percent inhibition of the compounds of this invention versus the reaction rate of the enzyme in the absence of any inhibitor. The Ki's of the inhibitors were calculated from the percent inhibition and previously established Km.

Point of comparison: “N-[7-(aminoiminomethyl)-1-naphthalenyl]-1,3-benzodioxole-5-carboxamide [Example 19]”, IC50 2210 nM. Against it:
- N-[7-(aminoiminomethyl)-1-naphthalenyl)-2-methoxyacetamide [Example 160] — within 1.5-fold, 2620 nM
- N-[7-(aminoiminomethyl)-1-naphthalenyl)acetamide [Example 15] — within 1.5-fold, 2500 nM
- N-[7-(aminoiminomethyl)-1-naphthalenyl)propanamide [Example 159] — within 1.5-fold, 2230 nM
- N-[7-(aminoiminomethyl)-1-naphthalenyl]-2-(phenylmethoxy)acetamide [Example 18] — 5.3-fold lower, 420 nM
- N-[7-(aminoiminomethyl)-1-naphthalenyl]-2-hydroxyacetamide [Example 162] — 1.7-fold lower, 1330 nM
- N-[7-(aminoiminomethyl)-1-naphthalenyl]-N′-methylurea [Example 157] — within 1.5-fold, 3120 nM
- N-[7-(aminoiminomethyl)-1-naphthalenyl]benzenemethanesulfonamide [Example 20] — 2.8-fold lower, 803 nM
- N-phenyl-6-aminoiminomethyl-2-naphthalenecarboxamide [Example 55] — 2.5-fold lower, 900 nM
- [(7-aminoiminomethyl-2-methoxy-1-naphthalenyl)oxy]acetic acid [Example 7] — 1.6-fold higher, 3500 nM
- ethyl [7-(aminoiminomethyl)-1-naphthalenyl)carbamate [Example 158] — 25-fold lower, 90 nM
- methyl 2-[4-[[[6-(aminoiminomethyl)-2-naphthalenyl]carbonyl]amino]phenoxy]acetate [Example 95] — within 1.5-fold, 1730 nM
- methyl 2-[[6-(aminoiminomethyl)-2-naphthalenyl]oxy]acetate [Example 185] — within 1.5-fold, 3190 nM
- methyl 4-[[[7-(aminoiminomethyl)-1-(2-pyrimidinylamino)-2-naphthalenyl]oxy]methyl]benzoate [Example 133] — 50-fold lower, 44 nM
- methyl [7-(aminoiminomethyl)-2-methoxy-I-naphthalenyl)carbamate [Example 99] — within 1.5-fold, 3020 nM
- propyl [7-(aminoiminomethyl)-1-naphthalenyl]carbamate [Example 156] — 12-fold lower, 180 nM
